These results are taken from US20260091012A1, “Methods Of Treating Meduloblastoma With Thyroid Hormone” (Institute For Cancer Research d/b/a The Research Institute …, priority 2022, published 2026).

For assay [1], the system named is MB cells isolated from Math1-Cre/Ptch1^fl/fl tumor mice. As to the kind of experiment: Cell Counting Kit-8 (CCK8) assay of MB cells, T3 and cisplatin. Format: cell-based, mouse. (In general: Tetrazolium dyes change colour on reduction, which living cells bring about.)
Method: MB cells were treated with vehicle (DMSO) as a control. […] The survival of MB cells was measured by Cell Counting Kit-8 (CCK8) following the treatment.
The subject of the next assay is D283. In words: EdU incorporation, proliferation of human MB group3 cell line D283. Particulars: D283, T3, 72 hours. In kind it is cell-based. The text has this: (§1) MB cells were isolated from Math1-Cre/Ptch1^fl/fl, Math1-Cre/Ptch1^fl/fl/Cas9 and SmoM2 tumor-bearing mice at 6 to 8 weeks of age, respectively. Tumor tissue was dissociated in a papain solution to obtain a single-cell suspension and then centrifuged through a 35% and 65% Percoll gradient. Cells from the 35% to 65% interface were suspended in Dulbecco's PBS (DPBS) plus 0.5% BSA. Cells were then suspended in NB-B22 (B22 supplement followed protocol in Jacob Hanna's lab) and plated on poly-D-lysine (PDL)-coated coverslips (BD Biosciences). D283, D341 and MB-shh cell lines were cultured in DMEM with 10% fetal bovine serum, 1% Pen/Strep and 2 mM L-glutamine (Invitrogen).
(§2) The EdU incubated cells were cultured at 1 μM in culture medium for 1 hour. 4% PFA was used to fix the cells for 10 minutes. The cells were incubated with the staining solution for 20 minutes in the dark. The cells were washed with PBST for 5 minutes/time for 3 times.
(§3) The percentage of EdU+ cells in the culture was quantified (see, FIG. 6, Panel A). […] The percentage of EdU+ cells in the culture was quantified (see, FIG. 6, Panel B). […] The percentage of EdU+ cells in the culture were quantified (see, FIG. 6, Panel C). […] Thus, thyroid hormone may be used to treat different type of medulloblastoma.

A further assay concerns SmoM2 tumor mice. In words: Survival and tumor markers in SmoM2 tumor mice. Format: in vivo, mouse. As for the experimental part:
(§4) Math1-Cre mice, Ptch1^fl/fl mice, R26-SmoM2 mice, Math1-CreER mice, CAG-Cas9 mice and were purchased from the Jackson Laboratory. All mice were bred and genotyped as recommended by the Jackson Laboratory. CB17/SCID mice were bred in the Fox Chase Cancer Center Laboratory Animal Facility (LAF).
(§5) GDC0449 (50 mg/kg) diluted using MCT and administrated to mice by oral gavage once a day. […] Log-rank survival analyses were performed in GraphPad Prism 9.
Conversely, pHH3, a cell proliferation maker, was decreased in T3-treated mice tumor tissues (see, FIG. 5, Panel B).

Assay [2] has as its system Math1-Cre/Ptch1^fl/fl tumor mice. In words: Survival and tumor markers in Math1-Cre/Ptch1fl/fl tumor mice. Format: in vivo, mouse. Here is the method:
as §4, §5

Another assay concerns RCMB28 cells. Here is the method: as §5
(§6) MB cells were stereotaxically injected into the cerebellum of 6- to 8-week-old SCID mice. Before transplantation, MB cells were infected with lentivirus carrying firefly luciferase for 24 hours. For transplantation with MB cells after the virus infection, the cell suspension was centrifuged at 1000 rpm for 5 minutes to remove the supernatant. 1×10^6 cells (based on Trypan blue staining) were injected into the cerebellum of each mouse. Animals were monitored weekly using in vivo bioluminescence imaging.
G3-MB PDOXs were generated by intracranial transplantation of RCMB28 cells transduced with a luciferase expressing construct.

Another assay has as its system MB ptch−/− cells. As to the kind of experiment: EdU incorporation, proliferation of MB ptch−/− cells. In kind it is cell-based, mouse. Particulars: NB-B22 cultured MB ptch−/− cells, different concentrations of T3, 48 hours; inhibition concentration dependent.
Source text: as §1, §5, §2
The inhibition was concentration dependent. The percentage of EdU+ cells in the culture were quantified (see, FIG. 1, Panel B). DAPI was used to counterstain cell nuclei.

For assay [3], the system named is Shh type PDX-luciferase cells. As to the kind of experiment: Human shh type MB PDX-luciferase growth in cerebellum of SCID mice (bioluminescence). In kind it is in vivo. Particulars: SCID mice treated by T3 for 3 weeks vs untreated controls. As for the experimental part: as §5, §6
The next assay has as its system D341. As to the kind of experiment: EdU incorporation, proliferation of human MB group3 cell line D341. In kind it is cell-based. Particulars: D341, T3, 72 hours.
Source text: as §1, §2, §3

In another assay the test system is MB cells. As to the kind of experiment: Immunostaining of differentiation marker MAP2 in MB cells. In kind it is cell-based, mouse. Particulars: MB cells treated by T3 for 48 hours.
For another assay, the system named is Group3 (Ms)MB cells. In words: EdU incorporation, proliferation of MB group3 (Mouse) cells. In kind it is cell-based. Particulars: T3, 72 hours. As for the experimental part: as §2, §3
Setting [4] is: T3 200 ng/g i.p. twice a day vs without T3.
Where [5] appears, read: T3-treated mice, immunohistochemistry.

`N.N.[Cl][Pt][Cl]` [cisplatin]: the “cell proliferation / survival of MB cells (CCK8)” value in [1] (cisplatin alone at seven different concentrations vs vehicle (DMSO)) is “inhibited cell proliferation significantly except 31.23 nM and 62.5 nM”.
Take `N[C@@H](Cc1cc(I)c(Oc2ccc(O)c(I)c2)c(I)c1)C(=O)O` [T3, triiodothyronine]: the “proliferation of group3 tumor cells (percentage of EdU+ cells)” value with D283, with D341 and with Group3 (Ms)MB cells was “significantly inhibited” throughout. Moreover, the mice survival entry (in the assay with SmoM2 tumor mice (setting [4]); in assay [2] (setting [4])) was “prolonged” in each case. Further, the “NeuN (differentiation marker) expression in tumor tissues” value (in the assay on SmoM2 tumor mice (setting [5]); in assay [2] (setting [5])) was “enhanced expression” in each case. The “pHH3 (cell proliferation marker) in tumor tissues” value (with SmoM2 tumor mice (setting [5]); in assay [2] (setting [5])) was “decreased” throughout. Moreover, in assay [2] (T3-treated mice), the “tumor progression in vivo” value is “repressed tumor progression”. In addition, the “survival of recipient mice” value in the assay with RCMB28 cells (T3 i.p. compared with PBS treatment, p<0.01) was “significantly prolonged”. Also, the “tumor progression in recipient mice” value in the assay on RCMB28 cells (T3 i.p. vs PBS, after tumors were established) is reported as “significantly repressed”. Besides, the median survival entry in the assay on RCMB28 cells (T3 i.p., PBS treatment 15 days, p<0.01) is “undefined”. Moreover, the “proliferation of medulloblastoma cells (percentage of EdU+ cells)” value with MB ptch−/− cells is “significantly inhibited”. Also, the “MB growth (in vivo bioluminescence)” value in assay [3] is “significantly inhibited”. Moreover, the “MB cell proliferation (CCK8)” value in [1] (T3 alone at two concentrations vs vehicle (DMSO)) is “decreased”. Besides, the “MAP2 expression (differentiation marker)” value in the assay with MB cells is “increased”.
